Measured values: patent US9326513B2, “Fungicidal compositions” (Syngenta Participations AG, priority 2011, dated 2016)

Key:
Assay type in all cases: in vivo
Details in all cases: foliar, compared to untreated control leaf disks, read-out: disease control
[1] = system: Blumeria graminis f. sp. tritici (Erysiphe graminis f. sp. tritici); experiment: Blumeria graminis f. sp. tritici / wheat / leaf disc preventative (powdery mildew on wheat)
Procedure, shortened: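 Preventative leaf-disc test: compound (200 ppm) was sprayed onto cv. Kanzler wheat segments, which were dusted with conidia from infected plants 1 day after application. After incubation at 20° C and 60% rh, disease control relative to untreated segments was rated 6-8 days after application.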

[2] = system: Puccinia recondita f. sp. tritici; experiment: Puccinia recondita f. sp. tritici / wheat / leaf disc preventative (brown rust)
Text: Puccinia recondita f. sp. tritici/Wheat/Leaf Disc Preventative (Brown Rust) Wheat leaf segments cv. Kanzler were placed on agar in multiwell plates (24-well format) and sprayed with the formulated test compound diluted in water. The leaf disks were inoculated with a spore suspension of the fungus 1 day after application.

[3] = system: Puccinia recondita f. sp. tritici; experiment: Puccinia recondita f. sp. tritici / wheat / leaf disc curative (brown rust)
Experimental: Puccinia recondita f. sp. tritici/Wheat/Leaf Disc Curative (Brown Rust) Wheat leaf segments cv. Kanzler are placed on agar in multiwell plates (24-well format). The leaf segments are inoculated with a spore suspension of the fungus. Plates were stored in darkness at 19° C. and 75% rh. The formulated test compound diluted in water was applied 1 day after inoculation.

Pyrenophora teres = Pyrenophora teres / barley / leaf disc preventative (net blotch)
Text: Pyrenophora teres/Barley/Leaf Disc Preventative (Net Blotch) Barley leaf segments cv. Hasso were placed on agar in a multiwell plate (24-well format) and sprayed with the formulated test compound diluted in water. The leaf segments were inoculated with a spore suspension of the fungus 2 days after application.

Measured: pest or weed control at 200 ppm

CCN(C)/C=N/c1cc(Br)c(OC2CCC(C)C(C)CC2)nc1C (stereo not drawn) [Q.308]
≥ 50%: [1] | [2] | [3] | Pyrenophora teres

CCN(C)/C=N/c1cc(Br)c(OC2CC(C)=C(C)C2)nc1C [Q.315]
≥ 50%: [1] | [2] | [3] | Pyrenophora teres

CCN(C)/C=N/c1cc(Br)c(OC2CC=CCC2)nc1C (stereo not drawn) [Q.316]
≥ 50%: [1] | [2] | [3] | Pyrenophora teres

CCN(C)/C=N/c1cc(Br)c(OCc2ccc(C)cc2C)nc1C [Q.324]
≥ 50%: [1] | [2] | [3] | Pyrenophora teres

CCN(C)/C=N/c1cc(Br)c(OC(C)c2cccc(CCc3ccccc3)c2)nc1C (stereo not drawn) [Q.329]
≥ 50%: [1] | [2] | [3] | Pyrenophora teres

CCN(C)/C=N/c1cc(Br)c(OC2CCC(C(C)C)CC2)nc1C (stereo not drawn) [Q.334]
≥ 50%: [1] | [2] | [3] | Pyrenophora teres

CCN(C)/C=N/c1cc(Br)c(OCc2ccccc2SC)nc1C [Q.335]
≥ 50%: [1] | [2] | [3] | Pyrenophora teres

CCN(C)/C=N/c1cc(Br)c(OCc2ccccc2[S+](C)[O-])nc1C (stereo not drawn) [Q.336]
≥ 50%: [1] | [2] | [3] | Pyrenophora teres

CCN(C)/C=N/c1cc(Br)c(OCc2ccccc2S(C)(=O)=O)nc1C [Q.337]
≥ 50%: [1] | [2] | [3] | Pyrenophora teres

CCCc1cccc(C(C)Oc2nc(C)c(/N=C/N(C)CC)cc2Br)c1 (stereo not drawn) [Q.344]
≥ 50%: [1] | [2] | [3] | Pyrenophora teres

CCCc1cccc(COc2nc(C)c(/N=C/N(C)CC)cc2Br)c1 [Q.346]
≥ 50%: [1] | [2] | [3] | Pyrenophora teres

CCN(C)/C=N/c1cc(Br)c(OCCc2ccccc2C)nc1C [Q.349]
≥ 50%: [1] | [2] | [3] | Pyrenophora teres

Cc1ccccc1CCOc1ccc(/N=C/N(C)C(C)C)c(C)n1 [Q.352]
≥ 50%: [1] | [2] | [3] | Pyrenophora teres

CCN(C)/C=N/c1cc(Br)c(OC(C)Cc2ccccc2C)nc1C (stereo not drawn) [Q.353]
≥ 50%: [1] | [2] | [3] | Pyrenophora teres

CCN(C)/C=N/c1ccc(OC(C)Cc2ccccc2C)nc1C (stereo not drawn) [Q.354]
≥ 50%: [1] | [2] | [3] | Pyrenophora teres
